pIC50: −log10 of the molar value. Read-outs that look alike come from different tables or passages of the source.
Key:
[1] = test system: NO production in LPS-treated RAW 264.7 cells; assay: Inhibition of NO production (Griess reaction) in LPS-treated RAW 264.7 macrophages; assay type: cell-based, mouse; conditions: for pIC50: LPS (100 ng/mL)-treated RAW 264.7, 1 h pre-treatment, 48 h, vs Carbowax 400 control, mean ± SEM, read-out: IC50 Inhibition of NO production; for IC50: LPS-treated RAW 264.7, values given in nM, read-out: IC50 for inhibition of NO production (anti-inflammatory activity)
Description: (§1) Mouse macrophage cell line RAW 264.7 was cultured in DMEM medium (cat. #21885-025, Gibco) supplemented with 10% heat inactivated fetal bovine serum (cat. #10270-106, Gibco) and 1% penicillin-streptomycin (cat. #15070-063, Gibco). Cells were cultured in 37° C. and 5% CO2. Each compound was diluted in Carbowax™ 400+10% ethanol (cat. #1.00983, Sigma), used also as control solvent. Final concentration in culture was 0.1% v/v carbowax and 0.01% v/v ethanol. RAW 264.7 macrophages were activated using 100 ng/mL lipopolysaccharide (LPS) (L2630, Sigma). In IC50 determination experiments, macrophages were pre-treated for 1 h with the respective compound prior to LPS stimulation.
30×104 RAW 264.7 mouse macrophages were plated in 24-well plates over-night with 0.5 mL complete medium. Cells were pretreated for 1 h with the respected compound concentration and then stimulated with 100 ng/mL LPS (L2630, Sigma) for 48 h. The amount of nitrite, an oxidative product of NO, was measured in culture supernatant of each sample using the Griess reaction. 100 μL of supernatant was mixed with 100 μl of sulfanilamide solution (1% sulfanilamide in 5% H3PO4) and incubated for 5 min at room temperature. Then, 100 μL of NED solution (0.1% N-1-naphtylethylenediamine dihydrochlorite in H2O) was added and the absorbance was measured in an automated microplate reader (Infinate 200 PRO, Tecan) at 540 nm. Nitrite concentration was calculated using a sodium nitrite standard curve. All incubations were performed in the dark.
(§2) All data are presented as mean±SEM and as percentage in case of IC50 evaluation. Statistical analysis was performed using Graphpad Prism 7.0. D'Agostino & Pearson, Shapiro Wilk and KS tests were used to evaluate normality. In case of normality, one-way ANOVA was performed, whereas in all other cases the non-parametric Kruskal-Wallis test was used. Differences with a P value <0.05 are considered significant (*indicates P<0.05, **indicates P<0.01, ***indicates P<0.001).

RAW 264.7 macrophages = assay: MTT cytotoxicity / proliferation assay in RAW 264.7 macrophages; assay type: cell-based, mouse; conditions: for Significant cytotoxicity at concentrations above: RAW 264.7, values given in nM
Description: as §1
3.5×103 RAW 264.7 mouse macrophages were seeded in 96-well plate and cultured overnight. Cells were subsequently treated with the respective compound concentration and incubated for 24, 48 and 72 h. Number of cells was measured prior to treatment and used as normalisation control. Thiazolyl Blue Tetrazolium Bromide (MTT) (A2231.001, Applichem) was added to the cells in a final concentration of 0.5 mg/mL and then cells were incubated at 37° C. and 5% CO2 for 4 h. The supernatant was discarded and cells were lysed with 2-propanol (33539, Honeywell) with 0.4% HCl (30721, Sigma). The absorbance of each sample was measured in an automated microplate reader (Infinite 200 PRO, Tecan) at 600 nm. The average OD of each treated sample was normalized to the OD of the control sample and statistical analysis was performed using Graphpad Prism 7.0.
as §2

[2] = MTT, RAW 264.7, 72 h of treatment, concentration above which cytotoxic

SMILES	pIC50 ([1]; Mus musculus, RAW264.7)	IC50 ([1]; Mus musculus, RAW264.7) [nM]	Cytotoxicity (at 72 h) (RAW 264.7 macrophages; [2]) [µM]	Significant cytotoxicity at concentrations above (RAW 264.7 macrophages; MTT)	further results
CC[C@@H]1O[C@@H]2C[C@H]3O[C@H]3C[C@H](C=C=CBr)O[C@@H]2C[C@H]1Br [Compound a1, Thuwalallene A]	–	–	–	–	pIC50 [1]: 4.58
CC[C@@H]1O[C@@H]2C/C=C\C[C@H](C=C=CBr)O[C@@H]2CC1Br (stereo partly shown) [Compound a3, Thuwalallene C]	5.38	–	–	–	–
C#C/C=C\C[C@@H]1O[C@@H]2C[C@@H](Br)[C@H](CC)O[C@@H]2C[C@@H]1Br [Compound a4, Thuwalenyne A]	–	–	–	–	Anti-inflammatory activity (in words) ([1]; LPS-treated RAW 264.7, all concentrations tested): did not exhibit anti-inflammatory activity; Cytotoxicity (in words) (RAW 264.7 macrophages): did not exhibit anti-inflammatory activity or cytotoxicity; Cytotoxicity (at 72 h) (RAW 264.7 macrophages; mouse, 72 h): >62.5 µM
CC(C)(O)C1CC[C@](C)([C@@H](O)CC[C@](C)(O)[C@H]2CC[C@H]3O[C@@H]([C@]4(C)CC[C@@H](Br)C(C)(C)O4)CC[C@]3(C)O2)O1 (stereo partly shown) [Compound a10, thyrsiferol]	8.36	4.39	>0.1	above 100 nM	–
CC(=O)OC(C)(C)C1CC[C@](C)([C@@H](O)CC[C@](C)(O)[C@H]2CC[C@H]3O[C@@H]([C@]4(C)CC[C@@H](Br)C(C)(C)O4)CC[C@]3(C)O2)O1 (stereo partly shown) [a11, 23-acetyl-thyrsiferol]	8.58	2.63	>0.01	above 10 nM	–

— patent US20220112208A1, “COMPOUNDS WITH ANTIINFLAMMATORY ACTIVITY AND METHODS OF USE THEREOF” (King Abdullah University of Science and Technology, priority 2020, published 2022)
